Like-named read-outs stand apart in the source and are kept apart here.
Legend:
[1] = test system: L1210 murine leukemia cells; experiment: Cytotoxicity (parallel assay) against L1210 murine leukemia cells; format: cell-based; conditions: for inhibition at 0.1 µg/mL / inhibition at 0.25 µg/mL / inhibition at 0.5 µg/mL / inhibition at 1 µg/mL: Mus musculus; for inhibition at 0.1 µg/mL: L1210, 0.1 μg/mL; for inhibition at 0.25 µg/mL: L1210, 0.25 μg/mL; for inhibition at 0.5 µg/mL: L1210, 0.5 μg/mL; for inhibition at 1 µg/mL: L1210, 1.0 μg/mL; for cytotoxic activity compared with other compounds / activity relative to crambescidin 816 (1): L1210 cells
Source text: However, crambescidins 674 (9) and 687 (10) without a spermidine derivative unit are less than 5 times as active than 1.
Cytotoxicities against L1210 Cells for Compounds 1, 6-12,

Ca^2+ channel = conditions: cited from earlier work
[2] = test system: Herpes simple-x, Type I virus (HSV-I); conditions: cited from earlier work
[3] = virus not named; cited from earlier work
L1210 cells = conditions: cited from earlier work
P388 cells = conditions: cited from earlier work
HSV = conditions: cited from earlier work
Rhodotorula glutinis = experiment: Antimicrobial assay against Rhodotorula glutinis; format: cell-based
Candida albicans = conditions: cited from earlier work
KB cells = conditions: cited from earlier work
[4] = times as active than 1, without a spermidine derivative unit

SMILES | inhibition at 0.1 µg/mL [1] [%] | inhibition at 0.25 µg/mL [1] [%] | inhibition at 0.5 µg/mL [1] [%] | inhibition at 1 µg/mL [1] [%] | further results
CCC1C=CCCC2(CC3CCC4(O)C(C(=O)OCCCCCCCCCCCCCCCC(=O)N(CCCN)CC(O)CCN)C5(CCCC(C)O5)NC(=N2)N34)O1 (centres unmarked) [Compound 1, crambescidin 816, reference compound] | 0 | 70 | 97 | 100 | Ca^2+ channel blocker (Ca^2+ channel): potent calcium channel blocker; Ca^2+ channel blocker (Ca^2+ channel; listed as crambescidin 816 (1)): strong Ca^2+ channel blocker; antiviral activity against HSV-I [2]: exhibited antiviral activity
CCC1C=CCCC2(CC3CCC4C(C(=O)OCCCCCCCCCCCCCCCC(=O)N(CCCN)CC(O)CCN)C5(CCCC(C)O5)NC(=N2)N34)O1 (centres unmarked) [Compound 5, 13, 14, 15-Isocrambescidin 800] |  |  |  |  | antiviral activity [3]: no observed antiviral activity; growth inhibition / cytotoxicity, L1210 cells (L1210 cells): substantially less cytotoxic
CCC1C=CCCC2(CC3CCC4C(C(=O)OCCCCCCCCCCCCCCCC(=O)N(CCCN)CCCCN)C5(CCCC(C)O5)NC(=N2)N34)O1 (centres unmarked) [Compound 6, ptilomycalin A] | 20 | 60 | 99 | 100 | cytotoxicity, P388 cells (P388 cells): shown cytotoxicity; cytotoxic activity compared with other compounds [1]: slightly more active than 1; growth inhibition / cytotoxicity, L1210 cells (L1210 cells): shown cytotoxicity; antiviral activity (HSV) (HSV): antiviral activity (HSV); antimicrobial activity at 2 μg/well (Rhodotorula glutinis): active; antifungal activity against Candida albicans (Candida albicans): antifungal activity; cytotoxicity, KB cells (KB cells): shown cytotoxicity
CCC1C=CCCC2(CC3CCC4(O)C(C(=O)OCCCCCCCCCCCCCCCC(=O)N(CCCN)CC(Cl)CCN)C5(CCCC(C)O5)NC(=N2)N34)O1 (centres unmarked) [Compound 7, Crambescidin 834] | 90 | 95 | 95 | 100 | activity relative to crambescidin 816 (1) ([1]; times more active than 1): about 5 times
CCC1C=CCCC2(CC3CCC4C(C(=O)OCCCCCCCCCCCCCCCC(=O)N(CCCN)CC(Cl)CCN)C5(CCCC(C)O5)NC(=N2)N34)O1 (centres unmarked) [Compound 8, Crambescidin 818] | 90 | 95 | 95 | 100 | activity relative to crambescidin 816 (1) ([1]; times more active than 1): about 5 times
CCC1C=CCCC2(CC3CCC4(O)C(C(=O)OCCCCCCCCCCCCCCCC(=O)O)C5(CCCC(C)O5)NC(=N2)N34)O1 (centres unmarked) [Compound 9, Crambescidin 673] | 0 | 0 | 0 | 100 | activity relative to crambescidin 816 (1) [1, 4]: less than 5 times
CCC1C=CCCC2(CC3CCC4(O)C(C(=O)OCCCCCCCCCCCCCCCC(=O)OC)C5(CCCC(C)O5)NC(=N2)N34)O1 (centres unmarked) [Compound 10, Crambescidin 687] | 0 | 0 | 0 | 100 | activity relative to crambescidin 816 (1) [1, 4]: less than 5 times
CCC1C=CCCC2(CC3CCC4C(C(=O)OCCCCCCCCCCCCCCCC(=O)O)C5(CCCC(C)O5)NC(=N2)N34)O1 (centres unmarked) [Compound 11, Crambescidin 657] |  |  |  | 100 | Inhibition (%) ([1]; 0.1 μg/mL): 93%; cytotoxic activity compared with other compounds ([1]; listed as crambescidin 657 (11)): most cytotoxic compound in the test
CCC1C=CCCC2(CC3CCC4C(C(=O)OCCCCCCCCCCCCCCCC(=O)O)C5(CCCC(C)O5)NC(=N2)N34)O1 (centres unmarked) [Compound 12, 13,14,15-Isocrambescidin 657] |  |  |  |  | Inhibition (%) ([1]; 0.1 μg/mL): 0%; Inhibition (%) ([1]; 0.25 μg/mL): 0%; Inhibition (%) ([1]; 0.5 μg/mL): 0%; Inhibition (%) ([1]; 1.0 μg/mL): 100%; inhibition at 5 μg/mL ([1]; 5 μg/mL): no inhibition; cytotoxic activity compared with other compounds ([1]; listed as 13, 14, 15-Isocrambescidin 657 (12)): substantially less active
CCC1C=CCCC2(CC3CCC4C(C(=O)OCCCCCCCCCCCCCCCC(=O)OC)C5(CCCC(C)O5)NC(=N2)N34)O1 (centres unmarked) [Methyl 11] | 0 | 0 | 0 | 0 | 
